Results published in patent US5189065A, “Use of derivatives of 9,10-dihydrophenanthrene for the preparation of an anti-tumor medicament” (Roussel Uclaf, priority 1989, dated 1993).

Experiments:
[1] = target: T1, Tyrosinekinase of the EGF (Epidermal Growth Factor) Receptor (Homo sapiens, UniProt P00533); test: Inhibition of tyrosinekinase of the EGF receptor (A431 cell membranes); type: biochemical; conditions: membranes of A431 cells; samples containing poly(Glu, Ala, Tyr 6:3:1) substrate and EGF; 15 minutes at 30° C.; read-out: IC50, concentration of substance which inhibits the enzyme activity by 50% (converted)
T1 construct: Membranes of A431 cells (ATCC CRL 1555) are used as the source of EGF receptors; endogenous in cells; host or cells: A431 cell membranes (ATCC CRL 1555)
Procedure: 1 - Measurement of the Inhibition of Tyrosinekinase of the EGF (Epidermal Growth Factor) Receptor
Membranes of A431 cells (ATCC CRL 1555) are used as the source of EGF receptors. This cellular lineage expresses a large number of EGF receptors at its surface which have a tyrosinekinase activity.
These cells are pre-incubated with or without EGF (1000 nM) for 15 minutes and are added to a corresponding HEPES buffer (N-2-hydroxyethyl-piperazine-N'-2-ethanesulphonic acid) (with or without EGP) and containing Mg^2+ (10 mM) and Mn^2+ (2 mM) ions, 0.2% of X-100 triton, sodium orthovanadate (20 micromoles) and the inhibitor.
Samples either containing or not containing the poly substrate (Glu, Ala, Tyr 6:3:1) are prepared. The reaction is initiated by the addition of [gamma P^32 ] ATP (32 micromoles). After incubation for 15 minutes at 30° C. the samples are precipitated using 10% […], followed by filtering on a millipore membrane and the incorporated P^32 is measured with a liquid scintillation counter.
The results are expressed in IC50, that is the concentration of substance which inhibits the enzyme activity by 50%, determined by a series of dilutions starting at 51 micrograms/ml in the samples containing the substrate and EGF.

[2] = test system: catalytic sub-unit of the proteinkinase dependent on cyclic 3',5'-AMP; test: Inhibition of the proteinkinase dependent on cyclic 3',5'-AMP; type: biochemical; conditions: inhibitor 40 micrograms/ml; KEMPTID substrate; pH 6.9; 15 minutes at 30° C.
Procedure: 2 - Measurement of the Inhibition of the Proteinkinase Dependent on Cyclic 3',5'-AMP
The catalytic sub-unit of the proteinkinase dependent on cyclic 3',5'-AMP was reconstituted as indicated in SIGMA®. The enzyme activity was measured using KEMPTID® (SIGMA®) as substrate (KEMPTID - Leu-Arg-Arg-Ala-Ser-Leu-Gly).
The inhibitor is pre-incubated at pH 6.9 with the enzyme, the substrate (190 micromoles), Mg^+2 (5 mM), 0.25 mg/ml of BSA (Bovine Serum Albumin) and 3.75 mM of mercaptoethanol in 50 mM of 4-morpholinopropanesulphonic acid.
The reaction is initiated using gamma P^32 ATP (40 micromoles). After 15 minutes at 30° C. an aliquot is placed on an ion-exchange paper ([…]; WHATMAN®) plunged into phosphoric acid (75 mM), washed, dried and the incorporation of P^32 is measured using a liquid scintillation counter.
The results are expressed as a percentage of the enzyme activity inhibition at a concentration of inhibitor of 40 micrograms/ml.

T1 sequence (P00533 25-1210): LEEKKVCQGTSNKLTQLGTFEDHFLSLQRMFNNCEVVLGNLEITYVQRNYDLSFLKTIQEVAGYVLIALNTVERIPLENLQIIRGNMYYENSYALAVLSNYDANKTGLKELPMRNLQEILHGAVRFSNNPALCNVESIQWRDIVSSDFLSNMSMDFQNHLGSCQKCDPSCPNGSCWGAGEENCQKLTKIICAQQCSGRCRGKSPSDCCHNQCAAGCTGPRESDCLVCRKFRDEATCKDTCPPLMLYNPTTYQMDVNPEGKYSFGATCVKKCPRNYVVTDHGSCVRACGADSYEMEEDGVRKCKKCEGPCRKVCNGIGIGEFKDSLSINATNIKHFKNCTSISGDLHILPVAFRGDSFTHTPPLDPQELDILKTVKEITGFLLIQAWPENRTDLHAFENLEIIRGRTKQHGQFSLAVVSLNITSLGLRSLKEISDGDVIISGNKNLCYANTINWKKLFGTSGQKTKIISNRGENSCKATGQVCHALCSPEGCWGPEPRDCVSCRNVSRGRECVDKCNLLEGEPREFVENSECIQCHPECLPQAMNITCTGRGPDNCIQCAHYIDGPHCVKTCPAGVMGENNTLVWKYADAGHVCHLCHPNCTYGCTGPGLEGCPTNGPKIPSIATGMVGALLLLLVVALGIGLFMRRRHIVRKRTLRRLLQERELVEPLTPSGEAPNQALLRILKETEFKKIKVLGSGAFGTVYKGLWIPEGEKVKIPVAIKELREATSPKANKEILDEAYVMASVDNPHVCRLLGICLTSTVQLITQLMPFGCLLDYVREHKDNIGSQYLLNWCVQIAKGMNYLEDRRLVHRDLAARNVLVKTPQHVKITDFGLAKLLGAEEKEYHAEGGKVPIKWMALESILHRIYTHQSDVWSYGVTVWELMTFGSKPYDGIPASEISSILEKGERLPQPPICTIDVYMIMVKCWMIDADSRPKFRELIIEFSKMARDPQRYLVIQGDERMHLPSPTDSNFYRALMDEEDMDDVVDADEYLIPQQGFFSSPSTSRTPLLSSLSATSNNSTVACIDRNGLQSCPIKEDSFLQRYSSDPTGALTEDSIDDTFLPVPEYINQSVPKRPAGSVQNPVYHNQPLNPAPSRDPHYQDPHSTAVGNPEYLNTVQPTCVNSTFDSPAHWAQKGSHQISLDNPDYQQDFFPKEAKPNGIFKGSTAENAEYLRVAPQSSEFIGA
T1 sequence (P01133 971-1023 partner limits assumed): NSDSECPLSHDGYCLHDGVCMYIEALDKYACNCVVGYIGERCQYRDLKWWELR

SMILES | IC50 [1] [nM] | percentage of the enzyme activity inhibition [2] [%]
CN(C)C1Cc2ccc(O)c(O)c2-c2ccccc21 (stereo not shown) [Product A, 3,4-dihydroxy-9-dimethylamino-9,10-dihydrophenanthrene] | 2350 | 19
Br.CNC1Cc2ccc(O)c(O)c2-c2ccccc21 (stereo not shown) [Example 3, 3,4-dihydroxy-9-methylamino-9,10-dihydrophenanthrene (hydrobromide)] | 621 | 18
